Measured values: US20240270762A1, “PENICILLIN-BINDING PROTEIN INHIBITORS” (priority 2021, published 2024)
pIC50: −log10 of the molar value. Converted amounts (≈) assume the structure as drawn. Like-named read-outs stand apart in the source and are kept apart here.

Columns and labels:
[1] = target: T1, PBP3 from Acinetobacter baumannii (ATCC 19606) (Acinetobacter baumannii, UniProt A0ABX6CK25); experiment: Bocillin-FL fluorescence polarization competition binding, A. baumannii PBP3; settings: fluorescence polarization competition binding assay using Bocillin-FL; read-out: A. baumannii PBP3 Potency
T1 sequence (A0ABX6CK25 64-610): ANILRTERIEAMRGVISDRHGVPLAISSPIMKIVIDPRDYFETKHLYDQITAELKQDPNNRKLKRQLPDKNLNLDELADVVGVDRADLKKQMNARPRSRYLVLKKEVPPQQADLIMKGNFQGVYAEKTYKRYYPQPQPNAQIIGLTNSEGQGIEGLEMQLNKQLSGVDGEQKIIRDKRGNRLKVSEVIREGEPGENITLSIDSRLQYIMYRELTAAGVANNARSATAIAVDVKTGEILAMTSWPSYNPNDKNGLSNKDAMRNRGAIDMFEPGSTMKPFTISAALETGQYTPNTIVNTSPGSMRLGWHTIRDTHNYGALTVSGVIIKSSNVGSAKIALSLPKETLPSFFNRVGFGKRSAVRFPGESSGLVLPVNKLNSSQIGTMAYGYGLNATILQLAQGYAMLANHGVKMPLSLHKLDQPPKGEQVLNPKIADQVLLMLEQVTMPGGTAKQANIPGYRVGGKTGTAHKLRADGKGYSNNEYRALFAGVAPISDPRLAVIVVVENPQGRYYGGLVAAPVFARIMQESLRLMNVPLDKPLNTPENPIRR
Summary of the method: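 Purified PBP was preincubated with inhibitor (E. coli PBP3 1.5 μM, 30 min; P. aeruginosa PBP3 0.75 μM, A. baumannii PBP3 0.2 μM and PBP1a 1 μM, 15 min), then Bocillin-FL (0.1 μM; 0.05 μM for PBP1a) added and FP read up to 60 min. EC50 = 50% loss of bound probe.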

A. baumannii ATCC 19606 = experiment: microbe, parasite or virus in culture; type: cell-based; settings: Acinetobacter baumannii, ATCC19606, read-out: MIC, A. baumannii ATCC 19606
P. aeruginosa CDC-0090 = experiment: microbe, parasite or virus in culture; type: cell-based; settings: Pseudomonas aeruginosa, CDC0090, read-out: Minimum inhibitory concentration, P. aeruginosa CDC-0090
A. baumannii 1258916 = experiment: microbe, parasite or virus in culture; type: cell-based, Acinetobacter baumannii; settings: Acinetobacter baumannii, 1258916, read-out: MIC, A. baumannii 1258916
A. baumannii CDC-0045 = experiment: microbe, parasite or virus in culture; type: cell-based; settings: Acinetobacter baumannii, CDC0045, read-out: MIC, A. baumannii CDC-0045
N. gonorrhoeae WHO G = experiment: Liquid broth MIC in Fastidious broth; settings: Neisseria gonorrhoeae
N. gonorrhoeae WHO M = experiment: Liquid broth MIC in Fastidious broth; settings: Neisseria gonorrhoeae
N. gonorrhoeae CDC-0197 = experiment: Liquid broth MIC in Fastidious broth; settings: Neisseria gonorrhoeae
[2] = read-out: Minimum Inhibitory Concentration, WHO G
[3] = read-out: Minimum Inhibitory Concentration, WHO M
[4] = CDC0197, read-out: Minimum Inhibitory Concentration, CDC-0197
[5] = read-out: Minimum Inhibitory Concentration (MIC), N. gonorrhoeae WHO G
[6] = read-out: Minimum Inhibitory Concentration (MIC), N. gonorrhoeae WHO M
[7] = CDC0197, read-out: Minimum Inhibitory Concentration (MIC), N. gonorrhoeae CDC-0197

SMILES | pIC50 [1] | MIC (A. baumannii ATCC 19606) [µg/mL] | MIC (P. aeruginosa CDC-0090) [µg/mL] | MIC (A. baumannii 1258916) [µg/mL] | MIC (A. baumannii CDC-0045) [µg/mL] | MIC (N. gonorrhoeae WHO G; [2]) [µg/mL] | MIC (N. gonorrhoeae WHO M; [3]) [µg/mL] | MIC (N. gonorrhoeae CDC-0197; [4]) [µg/mL] | MIC (N. gonorrhoeae WHO G; [5]) [µg/mL] | MIC (N. gonorrhoeae WHO M; [6]) [µg/mL] | MIC (N. gonorrhoeae CDC-0197; [7]) [µg/mL]
O=C(NCCCS(=O)(=O)N1CCN(C(=O)NC(C(=O)N[C@H]2Cc3ccc(F)c(C(=O)O)c3OB2O)c2cc(F)c(O)c(O)c2Cl)C1=O)c1nccs1 (stereo partly drawn) [Example 274, (3R)-3-(2-(2-chloro-5-fluoro-3,4-dihydroxyphenyl)-2-(2-oxo-3-((3-(thiazole-2-carboxamido)propyl)sulfonyl)imidazolidine-1-carboxamido)acetamido)-7-fluoro-2-hydroxy-3,4-dihydro-2H-benzo[e][1,2]oxaborinine-8-carboxylic acid] | > 5.00 | < 1 | 2 to 4 (≈ 2.54 to 5.08 µM) | < 1 | < 1 | 16 to 32 (≈ 20.3 to 40.7 µM) | 16 to 32 (≈ 20.3 to 40.7 µM) | 16 to 32 (≈ 20.3 to 40.7 µM) |  |  | 
O=C(NCCCN1CCN(C(=O)N[C@@H](C(=O)N[C@H]2Cc3ccc(F)c(C(=O)O)c3OB2O)c2cc(F)c(O)c(O)c2Cl)C(=O)C1=O)c1cccnc1 [Example 210, (R)-3-((R)-2-(2-chloro-5-fluoro-3,4-dihydroxyphenyl)-2-(4-(3-(nicotinamido)propyl)-2,3-dioxopiperazine-1-carboxamido)acetamido)-7-fluoro-2-hydroxy-3,4-dihydro-2H-benzo[e][1,2]oxaborinine-8-carboxylic acid] | > 5.00 | < 1 | < 1 | < 1 | < 1 |  |  |  | 4 to 8 (≈ 5.37 to 10.7 µM) | 16 to 32 (≈ 21.5 to 43 µM) | > 64
O=C(NCCN1CCN(C(=O)NC(C(=O)N[C@H]2Cc3ccc(F)c(C(=O)O)c3OB2O)c2cc(F)c(O)c(O)c2Cl)C(=O)C1=O)Nc1ccc(O)cc1 (stereo partly drawn) [Example 219, (3R)-3-(2-(2-chloro-5-fluoro-3,4-dihydroxyphenyl)-2-(4-(2-(3-(4-hydroxyphenyl)ureido)ethyl)-2,3-dioxopiperazine-1-carboxamido)acetamido)-7-fluoro-2-hydroxy-3,4-dihydro-2H-benzo[e][1,2]oxaborinine-8-carboxylic acid] | > 5.00 | < 1 | < 1 | 2 to 4 (≈ 2.63 to 5.26 µM) | 8 to 16 (≈ 10.5 to 21 µM) |  |  |  | 16 to 32 (≈ 21 to 42.1 µM) | 4 to 8 (≈ 5.26 to 10.5 µM) | > 64
O=C(NCCCN1CCN(C(=O)N[C@@H](C(=O)N[C@H]2Cc3ccc(F)c(C(=O)O)c3OB2O)c2cc(F)c(O)c(O)c2Cl)C1=O)c1ccccc1 [Example 253, (R)-3-((R)-2-(3-(3-benzamidopropyl)-2-oxoimidazolidine-1-carboxamido)-2-(2-chloro-5-fluoro-3,4-dihydroxyphenyl)acetamido)-7-fluoro-2-hydroxy-3,4-dihydro-2H-benzo[e][1,2]oxaborinine-8-carboxylic acid] | > 5.00 | < 1 | 2 to 4 (≈ 2.79 to 5.59 µM) | < 1 | < 1 | 16 to 32 (≈ 22.4 to 44.7 µM) | 4 to 8 (≈ 5.59 to 11.2 µM) | > 64 |  |  | 
O=C(NCCN1CCN(C(=O)NC(C(=O)N[C@H]2Cc3ccc(F)c(C(=O)O)c3OB2O)c2cc(F)c(O)c(O)c2Cl)C(=O)C1=O)c1ccccc1 (stereo partly drawn) [Example 207, (3R)-3-(2-(4-(2-benzamidoethyl)-2,3-dioxopiperazine-1-carboxamido)-2-(2-chloro-5-fluoro-3,4-dihydroxyphenyl)acetamido)-7-fluoro-2-hydroxy-3,4-dihydro-2H-benzo[e][1,2]oxaborinine-8-carboxylic acid] | > 5.00 | 2 to 4 (≈ 2.74 to 5.48 µM) | < 1 | 2 to 4 (≈ 2.74 to 5.48 µM) | 2 to 4 (≈ 2.74 to 5.48 µM) |  |  |  | 16 to 32 (≈ 21.9 to 43.8 µM) | 16 to 32 (≈ 21.9 to 43.8 µM) | 16 to 32 (≈ 21.9 to 43.8 µM)
O=C(NCCN1CCN(C(=O)N[C@@H](C(=O)N[C@H]2Cc3ccc(F)c(C(=O)O)c3OB2O)c2cc(F)c(O)c(O)c2Cl)C(=O)C1=O)Nc1ccncc1 [Example 221, (R)-3-((R)-2-(2-chloro-5-fluoro-3,4-dihydroxyphenyl)-2-(2,3-dioxo-4-(2-(3-(pyridin-4-yl)ureido)ethyl)piperazine-1-carboxamido)acetamido)-7-fluoro-2-hydroxy-3,4-dihydro-2H-benzo[e][1,2]oxaborinine-8-carboxylic acid] | > 5.00 | < 1 | < 1 | 2 to 4 (≈ 2.68 to 5.36 µM) | < 1 |  |  |  | 4 to 8 (≈ 5.36 to 10.7 µM) | 4 to 8 (≈ 5.36 to 10.7 µM) | > 64
O=C(NCCS(=O)(=O)N1CCN(C(=O)N[C@@H](C(=O)N[C@H]2Cc3ccc(F)c(C(=O)O)c3OB2O)c2cc(F)c(O)c(O)c2Cl)C1=O)Nc1cccnc1 [Example 267, (R)-3-((R)-2-(2-chloro-5-fluoro-3,4-dihydroxyphenyl)-2-(2-oxo-3-((2-(3-(pyridin-3-yl)ureido)ethyl)sulfonyl)imidazolidine-1-carboxamido)acetamido)-7-fluoro-2-hydroxy-3,4-dihydro-2H-benzo[e][1,2]oxaborinine-8-carboxylic acid] | > 5.00 | < 1 | 2 to 4 (≈ 2.56 to 5.12 µM) | < 1 | < 1 | 16 to 32 (≈ 20.5 to 40.9 µM) | 4 to 8 (≈ 5.12 to 10.2 µM) | 16 to 32 (≈ 20.5 to 40.9 µM) |  |  | 
O=C(NCCCS(=O)(=O)N1CCN(C(=O)NC(C(=O)N[C@H]2Cc3ccc(F)c(C(=O)O)c3OB2O)c2cc(F)c(O)c(O)c2Cl)C1=O)c1ccncc1 (stereo partly drawn) [Example 272, (3R)-3-(2-(2-chloro-5-fluoro-3,4-dihydroxyphenyl)-2-(3-((3-(isonicotinamido)propyl)sulfonyl)-2-oxoimidazolidine-1-carboxamido)acetamido)-7-fluoro-2-hydroxy-3,4-dihydro-2H-benzo[e][1,2]oxaborinine-8-carboxylic acid] | > 5.00 | < 1 | 2 to 4 (≈ 2.56 to 5.12 µM) | 2 to 4 (≈ 2.56 to 5.12 µM) | < 1 | 16 to 32 (≈ 20.5 to 41 µM) | 16 to 32 (≈ 20.5 to 41 µM) | 16 to 32 (≈ 20.5 to 41 µM) |  |  | 
O=C(NCCS(=O)(=O)N1CCN(C(=O)N[C@H](C(=O)N[C@H]2Cc3ccc(F)c(C(=O)O)c3OB2O)c2cc(F)c(O)c(O)c2Cl)C1=O)c1nccs1 [Example 263, (R)-3-((S)-2-(2-chloro-5-fluoro-3,4-dihydroxyphenyl)-2-(2-oxo-3-((2-(thiazole-2-carboxamido)ethyl)sulfonyl)imidazolidine-1-carboxamido)acetamido)-7-fluoro-2-hydroxy-3,4-dihydro-2H-benzo[e][1,2]oxaborinine-8-carboxylic acid] | 4.30 to 5.00 | 8 to 16 (≈ 10.4 to 20.7 µM) | 32 to 64 (≈ 41.4 to 82.8 µM) | 32 to 64 (≈ 41.4 to 82.8 µM) | 32 to 64 (≈ 41.4 to 82.8 µM) | > 64 | > 64 | > 64 |  |  | 
O=C(O)c1c(F)ccc2c1OB(O)[C@@H](NC(=O)[C@H](NC(=O)N1CCN(CCNC(=O)[C@@H]3CCCN3)C(=O)C1=O)c1cc(F)c(O)c(O)c1Cl)C2 [Example 229, (R)-3-((R)-2-(2-chloro-5-fluoro-3,4-dihydroxyphenyl)-2-(2,3-dioxo-4-(2-((S)-pyrrolidine-2-carboxamido)ethyl)piperazine-1-carboxamido)acetamido)-7-fluoro-2-hydroxy-3,4-dihydro-2H-benzo[e][1,2]oxaborinine-8-carboxylic acid] | > 5.00 | < 1 | 2 to 4 (≈ 2.77 to 5.53 µM) | 2 to 4 (≈ 2.77 to 5.53 µM) | < 1 |  |  |  | 4 to 8 (≈ 5.53 to 11.1 µM) | 4 to 8 (≈ 5.53 to 11.1 µM) | 16 to 32 (≈ 22.1 to 44.3 µM)
O=C(NCCCS(=O)(=O)N1CCN(C(=O)NC(C(=O)N[C@H]2Cc3ccc(F)c(C(=O)O)c3OB2O)c2cc(F)c(O)c(O)c2Cl)C1=O)c1cccnc1 (stereo partly drawn) [Example 273, (3R)-3-(2-(2-chloro-5-fluoro-3,4-dihydroxyphenyl)-2-(3-((3-(nicotinamido)propyl)sulfonyl)-2-oxoimidazolidine-1-carboxamido)acetamido)-7-fluoro-2-hydroxy-3,4-dihydro-2H-benzo[e][1,2]oxaborinine-8-carboxylic acid] | > 5.00 | < 1 | < 1 | < 1 | < 1 | 16 to 32 (≈ 20.5 to 41 µM) | 16 to 32 (≈ 20.5 to 41 µM) | 16 to 32 (≈ 20.5 to 41 µM) |  |  | 
